The conditions of data set [1]: Crystal; DTA.
The nature of data set [2]: Molar enthalpy of transition or fusion. The note with it: Crystal; DSC.

Data on one molecule can be found in the NIST ThermoML archive (doi:10.1016/j.tca.2015.05.023).

Numbers after ± are expanded uncertainties.

Turning to `O=[N+]([O-])[O-].[Na+]` [sodium nitrate], the Triple point temperature in data set [1] was 581.15 ± 1 K. Also, in data set [2], the “Molar enthalpy of transition or fusion” value amounted to 16.1 ± 0.51 kJ/mol.
